Results published in ChEMBL document CHEMBL4477262, “Non-canonical modulators of nuclear receptors” (Bioorg Med Chem Lett, 2016).
Values belong to the compound of their own block, whether it stands above or below them. Peptide text beside a SMILES is read from it.

Columns and labels:
[1] = molecular target: T1, Estrogen receptor (Homo sapiens, UniProt P03372); experiment: Displacement of europium-labeled SRC1 peptide from full length human recombinant ERalpha expressed in baculovirus expression system after 1.5 hrs in presence of estradiol-beta by TR-FRET assay
T1 sequence (P03372 whole entry): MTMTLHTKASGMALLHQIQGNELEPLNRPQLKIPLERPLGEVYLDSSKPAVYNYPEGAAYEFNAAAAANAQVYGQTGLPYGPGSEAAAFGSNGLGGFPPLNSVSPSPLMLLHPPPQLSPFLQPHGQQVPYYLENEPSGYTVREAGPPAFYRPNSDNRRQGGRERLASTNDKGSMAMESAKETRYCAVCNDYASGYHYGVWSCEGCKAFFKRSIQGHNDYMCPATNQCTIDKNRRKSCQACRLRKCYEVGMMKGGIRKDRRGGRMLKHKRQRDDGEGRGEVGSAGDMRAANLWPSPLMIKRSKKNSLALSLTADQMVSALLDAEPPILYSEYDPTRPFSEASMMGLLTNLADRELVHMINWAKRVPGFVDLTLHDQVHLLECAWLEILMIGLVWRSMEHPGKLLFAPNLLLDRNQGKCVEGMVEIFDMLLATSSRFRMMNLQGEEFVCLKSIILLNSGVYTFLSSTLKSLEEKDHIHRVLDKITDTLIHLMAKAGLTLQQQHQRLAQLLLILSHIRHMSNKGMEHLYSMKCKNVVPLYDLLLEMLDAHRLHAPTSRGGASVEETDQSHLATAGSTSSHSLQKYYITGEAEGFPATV

[2] = molecular target: T1, Estrogen receptor; experiment: Displacement of fluorescein-labeled PGC1alpha peptide from human GST-tagged ERalpha LBD after 2 hrs in presence of estradiol-beta by TR-FRET assay
[3] = molecular target: T1, Estrogen receptor; experiment: Inhibition of full length human ERalpha expressed in human HEC1 cells in presence of estradiol by luciferase reporter gene assay; format: cell-based
[4] = molecular target: T2, Peroxisome proliferator-activated receptor gamma (Homo sapiens, UniProt P37231); experiment: Displacement of 5-FAM-labeled NBM131 from human PPARgamma ligand binding domain expressed in human HepG2 cells by fluorescence polarization assay
T2 sequence (P37231 whole entry): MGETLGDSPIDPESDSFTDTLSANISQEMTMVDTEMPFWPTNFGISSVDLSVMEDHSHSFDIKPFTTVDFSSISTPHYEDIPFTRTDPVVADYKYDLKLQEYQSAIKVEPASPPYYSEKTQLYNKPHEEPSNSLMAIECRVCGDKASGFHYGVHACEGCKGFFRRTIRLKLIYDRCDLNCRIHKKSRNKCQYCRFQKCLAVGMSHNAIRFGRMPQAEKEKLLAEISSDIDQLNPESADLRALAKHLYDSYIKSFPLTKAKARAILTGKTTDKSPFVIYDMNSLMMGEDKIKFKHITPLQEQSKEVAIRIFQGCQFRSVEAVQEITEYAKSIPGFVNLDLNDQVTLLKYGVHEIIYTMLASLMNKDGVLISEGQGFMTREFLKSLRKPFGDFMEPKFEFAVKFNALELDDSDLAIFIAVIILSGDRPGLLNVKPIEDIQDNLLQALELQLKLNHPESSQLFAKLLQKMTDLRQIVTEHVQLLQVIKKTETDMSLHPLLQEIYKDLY

[5] = molecular target: T3, Peroxisome proliferator-activated receptor alpha (Homo sapiens, UniProt Q07869); experiment: Displacement of 5-FAM-labeled NBM131 from human PPARalpha ligand binding domain expressed in human HepG2 cells by fluorescence polarization assay
T3 sequence (Q07869 whole entry): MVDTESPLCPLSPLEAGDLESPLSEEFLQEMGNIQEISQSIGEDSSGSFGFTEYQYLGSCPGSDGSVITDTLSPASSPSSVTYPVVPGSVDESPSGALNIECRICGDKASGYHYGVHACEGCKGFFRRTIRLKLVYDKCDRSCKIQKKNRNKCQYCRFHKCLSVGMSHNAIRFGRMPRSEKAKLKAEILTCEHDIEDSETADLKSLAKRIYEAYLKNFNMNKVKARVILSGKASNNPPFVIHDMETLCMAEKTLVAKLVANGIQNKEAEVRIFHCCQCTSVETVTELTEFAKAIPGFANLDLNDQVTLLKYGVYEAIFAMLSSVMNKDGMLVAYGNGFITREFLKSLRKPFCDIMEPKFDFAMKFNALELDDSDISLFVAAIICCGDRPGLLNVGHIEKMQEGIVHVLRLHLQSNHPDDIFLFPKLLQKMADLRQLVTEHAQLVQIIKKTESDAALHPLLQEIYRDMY

[6] = molecular target: Androgen receptor/PELP1 (Homo sapiens, UniProt P10275+Q8IZL8); experiment: Inhibition of full length AR/PELP1 (unknown origin) interaction expressed in human LNCaP cells preincubated for 2 hrs followed by DHT addition measured after 24 hrs by Western blot analysis; format: cell-based
Chain of Androgen receptor/PELP1 (Q8IZL8 whole entry, one chain of several): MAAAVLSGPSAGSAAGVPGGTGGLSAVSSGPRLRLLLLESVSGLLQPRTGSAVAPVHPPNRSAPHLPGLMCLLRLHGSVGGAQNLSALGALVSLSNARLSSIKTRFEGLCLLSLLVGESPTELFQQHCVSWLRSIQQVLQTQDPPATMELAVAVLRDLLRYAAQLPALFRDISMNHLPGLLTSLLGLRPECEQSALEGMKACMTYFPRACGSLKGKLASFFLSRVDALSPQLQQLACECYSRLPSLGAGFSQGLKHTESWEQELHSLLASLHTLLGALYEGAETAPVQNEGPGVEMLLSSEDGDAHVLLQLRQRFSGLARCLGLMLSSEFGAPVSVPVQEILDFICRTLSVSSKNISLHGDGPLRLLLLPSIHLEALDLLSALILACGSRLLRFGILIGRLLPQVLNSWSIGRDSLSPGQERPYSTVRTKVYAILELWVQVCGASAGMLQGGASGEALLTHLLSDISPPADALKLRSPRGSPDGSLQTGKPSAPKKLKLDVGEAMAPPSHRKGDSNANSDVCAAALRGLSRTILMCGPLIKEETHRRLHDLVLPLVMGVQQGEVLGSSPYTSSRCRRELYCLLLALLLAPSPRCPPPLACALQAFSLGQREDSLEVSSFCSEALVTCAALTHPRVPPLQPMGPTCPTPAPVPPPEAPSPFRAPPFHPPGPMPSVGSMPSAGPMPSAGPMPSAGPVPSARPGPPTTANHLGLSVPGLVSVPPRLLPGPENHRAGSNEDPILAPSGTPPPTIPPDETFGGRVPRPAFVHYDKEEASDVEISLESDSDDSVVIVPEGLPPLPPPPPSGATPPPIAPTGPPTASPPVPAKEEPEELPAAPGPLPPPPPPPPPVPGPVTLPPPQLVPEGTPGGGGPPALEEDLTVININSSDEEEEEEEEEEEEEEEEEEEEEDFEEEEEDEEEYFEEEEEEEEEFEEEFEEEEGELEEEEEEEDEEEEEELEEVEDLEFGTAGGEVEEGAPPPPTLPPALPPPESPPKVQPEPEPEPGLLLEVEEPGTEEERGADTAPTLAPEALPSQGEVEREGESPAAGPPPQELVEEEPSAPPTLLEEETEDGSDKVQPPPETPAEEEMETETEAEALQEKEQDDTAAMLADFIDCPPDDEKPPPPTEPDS

[7] = molecular target: T4, Androgen receptor (Homo sapiens, UniProt P10275); experiment: Inhibition of AR transcriptional activity in human ARR2PB-eGFP expressing LNCaP cells after 3 days by fluorescence assay; format: cell-based
T4 sequence (P10275 whole entry): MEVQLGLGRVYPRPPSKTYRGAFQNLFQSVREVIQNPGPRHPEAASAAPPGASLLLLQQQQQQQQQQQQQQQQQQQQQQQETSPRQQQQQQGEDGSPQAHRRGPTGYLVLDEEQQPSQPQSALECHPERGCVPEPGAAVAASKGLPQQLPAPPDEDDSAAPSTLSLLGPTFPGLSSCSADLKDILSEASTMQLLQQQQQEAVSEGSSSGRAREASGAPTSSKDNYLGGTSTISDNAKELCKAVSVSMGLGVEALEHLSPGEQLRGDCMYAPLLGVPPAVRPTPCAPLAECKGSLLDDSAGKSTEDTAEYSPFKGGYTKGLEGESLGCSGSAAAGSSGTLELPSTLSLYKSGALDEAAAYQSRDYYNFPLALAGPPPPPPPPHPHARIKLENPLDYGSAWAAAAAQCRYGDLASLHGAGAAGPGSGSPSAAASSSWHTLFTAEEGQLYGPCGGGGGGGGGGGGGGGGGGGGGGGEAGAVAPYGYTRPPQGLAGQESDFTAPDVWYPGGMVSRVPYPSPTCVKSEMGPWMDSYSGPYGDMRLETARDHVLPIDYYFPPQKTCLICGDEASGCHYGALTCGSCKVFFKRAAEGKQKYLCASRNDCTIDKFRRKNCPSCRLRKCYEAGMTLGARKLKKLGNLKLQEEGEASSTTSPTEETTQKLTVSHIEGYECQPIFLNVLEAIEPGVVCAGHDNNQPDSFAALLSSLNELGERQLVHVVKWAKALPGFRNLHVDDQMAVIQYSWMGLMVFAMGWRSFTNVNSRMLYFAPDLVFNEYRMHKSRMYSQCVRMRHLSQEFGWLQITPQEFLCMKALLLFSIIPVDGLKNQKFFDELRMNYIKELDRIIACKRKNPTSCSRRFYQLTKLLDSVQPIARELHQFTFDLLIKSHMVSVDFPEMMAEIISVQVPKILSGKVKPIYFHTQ

[8] = molecular target: T5, Retinoic acid receptor RXR-alpha (Homo sapiens, UniProt P19793)
T5 sequence (P19793 whole entry): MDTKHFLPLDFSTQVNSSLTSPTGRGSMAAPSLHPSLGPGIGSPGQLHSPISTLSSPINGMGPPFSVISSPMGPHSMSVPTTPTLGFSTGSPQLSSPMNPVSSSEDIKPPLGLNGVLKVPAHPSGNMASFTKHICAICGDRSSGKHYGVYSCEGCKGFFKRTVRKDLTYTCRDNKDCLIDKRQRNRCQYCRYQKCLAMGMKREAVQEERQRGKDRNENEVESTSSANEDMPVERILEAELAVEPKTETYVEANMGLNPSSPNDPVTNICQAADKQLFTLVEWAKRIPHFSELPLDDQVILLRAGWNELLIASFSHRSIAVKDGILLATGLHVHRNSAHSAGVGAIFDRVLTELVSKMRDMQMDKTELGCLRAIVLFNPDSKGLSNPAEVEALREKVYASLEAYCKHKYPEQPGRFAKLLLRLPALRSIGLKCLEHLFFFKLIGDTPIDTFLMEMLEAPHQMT
Description: Binding affinity to human GST-tagged RXRalpha ligand binding domain (223 to 462 residues) expressed in Escherichia coli BL21 assessed as inhibition of 9-cis-RA-induced coactivator recruitment by TR-FRET assay

- IC50 [2]: 2460 nM
Structure (SMILES): O=C1NN(c2ccc(Cl)c(Cl)c2)C(=O)C1Cc1c[nH]c2ccccc12 (stereo not given)

- IC50 [3]: 6300 nM
Structure (SMILES): CC(C)NC(=O)CSc1nc2ccc(NC(=O)CSc3cccc(Cl)c3)cc2s1

- IC50 [3]: 2300 nM
Structure (SMILES): O=C(CCCCn1c(=S)[nH]c2ccccc2c1=O)N1CCN(c2ccc(C(F)(F)F)cc2)CC1

- IC50 [7]: 310 nM
Structure (SMILES): c1ccc2c(c1)CC(c1c[nH]c3ccccc13)N2 (stereo not given)

Continued, compound first:

Structure (SMILES): CC[C@H](C)[C@@H]1NC(=O)[C@H](NC(=O)[C@@H](N)CCCCN)CSSC[C@@H](C(=O)N[C@@H](CCCNC(=N)N)C(=O)N[C@@H](CC(C)C)C(=O)N[C@@H](CC(C)C)C(=O)N[C@@H](CCC(N)=O)C(=O)O)NC(=O)[C@H](CC(C)C)NC1=O
- Ki [1]: 25 nM

Structure (SMILES): CC(C)C[C@H](NC(=O)[C@H](Cc1ccccc1)NC(=O)[C@H](CCC(N)=O)NC(=O)[C@@H](NC(=O)[C@H](CC(C)C)NC(=O)[C@H](CC(C)C)NC(=O)[C@@H]1CCCN1C(=O)[C@H](Cc1cnc[nH]1)NC(=O)[C@H](CC(C)C)NC(=O)[C@H](CCC(N)=O)NC(=O)[C@@H](NC(=O)[C@@H]1CCCN1C(=O)[C@@H]1CCCN1C(=O)[C@@H](NC(=O)[C@@H](NC(=O)[C@H](C)N)[C@@H](C)O)[C@@H](C)O)[C@@H](C)O)[C@@H](C)O)C(=O)N[C@@H](CCCNC(=N)N)C(=O)N[C@H](C(=O)N[C@@H](CC(=O)O)C(=O)O)[C@@H](C)O (H-ATTPPTQLHPLLTQFLRTD-OH)
- Kd [4]: 80 nM
- Kd [5]: 80 nM

Structure (SMILES): COC(=O)c1ccc(NC(=O)c2ccc([N+](=O)[O-])c(OCC(C)C)c2)c(OCC(C)C)c1
- IC50 [6]: 40 nM

Structure (SMILES): CCOc1cc(Br)cc(CNNC(=O)c2ccc3c(c2)OCCO3)c1O
- IC50 [2]: 2980 nM

Structure (SMILES): CC1=C(CCc2nnn[nH]2)c2cc(F)ccc2/C1=C\c1ccc(C(C)C)cc1
- IC50 [8]: 10000 nM
